US20050165080A1, “Method for the treatment of diseases requiring inhibition or a reduction in the activity of pH value-regulating bicarbonate transporter proteins” (Solvay Pharmaceuticals GmbH, priority 2002, published 2005)

Legend:
[1] = test system: Na+-independent chloride-bicarbonate (Cl−/HCO3−) exchanger (AE) protein; assay: Intracellular pH recovery after alkalization (NH4Cl pulse) in BCECF-laden adult cardiac fibroblasts; format: cell-based, Wistar rats; settings: for recovery after the intracellular alkalization, compared with guanabenz-pre-treated or non-pre-treated cells / percentage of the change in pH value still present, relative to the maximum alkaline pH value reached, after 5 min / percentage of the change in pH value still present, relative to the maximum alkaline pH value reached, after 8 min: 30 min preincubation; for recovery after the intracellular alkalization, compared with guanabenz-pre-treated or non-pre-treated cells: moxonidine 10^−6 to 10^−9 mole/liter, H2-DIDS 10^−3 mole/liter, NH4Cl pulse; for percentage of the change in pH value still present, relative to the maximum alkaline pH value reached, after 5 min / percentage of the change in pH value still present, relative to the maximum alkaline pH value reached, after 8 min: 10^−6 mole/liter, 5 mmole/liter NH4Cl pulse, cardiac fibroblasts, mean and standard deviation from 3 to 5 experiments; for percentage of the change in pH value still present, relative to the maximum alkaline pH value reached, after 5 min: 5 min after maximum alkaline pH; for percentage of the change in pH value still present, relative to the maximum alkaline pH value reached, after 8 min: 8 min after maximum alkaline pH
Experimental: (§1) The investigations were carried out on cardiac fibroblasts isolated from the left ventricle of the myocardium of 6-week-old Wistar rats. Myocardial tissue was placed in HBSS medium without Ca^2+ and Mg^2+ (GibcoBRL), cut into small pieces which were incubated with 1 mg/ml collagenase A (Roche) with continuous shaking for 10 minutes in HBSS medium. The first supernatant was discarded and the incubation operation was repeated three times, the supernatant being collected each time in a tube with 5 ml HBSS medium. After centrifuging at 160×g for 10 min, the pellet was re-suspended in a flask with DMEM (GibcoBRL), to which 10% foetal calf serum (FCS, from Sigma) was added. […] The flasks were incubated in an air-humidified incubator with 5% CO2 and at 37° C. Cardiac fibroblasts, which grew in a typical monolayer, were cultivated by standard cell culture techniques and at subconfluence were transferred into new flasks in a 1:3 ratio [Brilla et al. (1994) Collagen metabolism in cultured adult rat cardiac fibroblasts: response to agiotensin II and aldosterone. J. Mol. Cell Cardiol. 26: 809-820].
The intracellular pH value of an individual cell was measured using the fluorescent marker BCECF (2′,7′-bis-(2-carboxymethyl)-5-[and -6]-carboxyfluorescein from Molecular Probes), the fluorescent intensity of which is pH-dependent. The cardiac fibroblasts were grown on glass microscope slides until at subconfluence, and were then laden with BCECF-acetoxymethyl ester. The fibroblasts thus pre-treated were washed with PBS and then preincubated with various test solutions and then rinsed. In so doing, the intracellular fluorescence of the BCECF was measured using an inverted microscope, to which a “PTI 710 Photon Counting Detection” system (Photon Technology International) with two monochromators was connected. The data were analysed using a fluorescence spectrometer. The measurement results—fluorescence signals—were converted into pH values using a calibration curve.
Composition of the bicarbonate solution: 118 mmole/liter NaCl, 4.7 mmole/liter KCl, 2.5 mmole/liter CaCl2×2H2O, 1.6 mmole/liter MgCl2×7H2O, 24.9 mmole/liter NaHCO3, 1.2 mmole/liter KH2PO4, 5.6 mmole/liter glucose and either 0.4% or 10% FCS, equilibrated with 20% O2 and 5% CO2 for at least 30 minutes to ensure a pH value of 7.4.
The individual test solutions were based on the above bicarbonate solution and contained the following concentration of the compounds below: • 10^−6 mole/liter guanabenz (Sigma) • 10^−6 mole/liter to 10^−9 mole/liter moxonidine • 10^−3 mole/liter H2-DIDS (Molecular Probes) Intracellular alkalization of the cells was achieved by rinsing with a 5 mmole/liter NH4Cl-containing bicarbonate solution (NH4Cl pulse). Subsequent washing-out of the NH4Cl by rinsing the cells with fresh bicarbonate solution results in intracellular acidification.
The effect of moxonidine, DIDS and guanabenz on the change in the intracellular pH value after alkalization of the cells is determined by an NH4Cl pulse. To this end, the BCECF-laden cardiac fibroblasts were preincubated for 30 minutes with a bicarbonate test solution containing one of the above compounds. Then the response of the intracellular pH value of the cells thus pre-treated to a 5 mmole/liter NH4Cl pulse was measured over time. Also the change in pH value which took place during the subsequent washing-out of the NH4Cl (intracellular acidification) was further measured over time. […] To quantify the inhibitory effects, the percentage of the change in pH value still present relative to the maximum alkaline or maximum acidic pH value achieved was calculated.

[2] = test system: Na+/bicarbonate (Na+/HCO3−) cotransporter (NBC) protein or/and Na+-dependent chloride-bicarbonate (Cl−/HCO3−) exchanger (NDAE and N(D)CBE) protein; assay: Intracellular pH recovery after acidification (NH4Cl wash-out) in cardiac fibroblasts; format: cell-based, Wistar rats; settings: recovery from intracellular acidification
Experimental: as §1, with “Cardiac fibroblasts, which grew in a typical monolayer, were cultivated by standard cell culture techniques and at subconfluence were transferred into new flasks in a 1:3 ratio [Brilla et al. (1994) Collagen metabolism in cultured adult rat cardiac fibroblasts: response to agiotensin II and aldosterone. J. Mol. Cell Cardiol. 26: 809-820].” left out
The intracellular pH value of an individual cell was measured using the fluorescent marker BCECF (2′,7′-bis-(2-carboxymethyl)-5-[and -6]-carboxyfluorescein from Molecular Probes), the fluorescent intensity of which is pH-dependent. […] In so doing, the intracellular fluorescence of the BCECF was measured using an inverted microscope, to which a “PTI 710 Photon Counting Detection” system (Photon Technology International) with two monochromators was connected. The data were analysed using a fluorescence spectrometer. The measurement results—fluorescence signals—were converted into pH values using a calibration curve. […]

| Compound | recovery after the intracellular alkalization, compared with guanabenz-pre-treated or non-pre-treated cells [1] | percentage of the change in pH value still present, relative to the maximum alkaline pH value reached, after 5 min [1] [%] | percentage of the change in pH value still present, relative to the maximum alkaline pH value reached, after 8 min [1] [%] | inhibitory effect on the recovery from the alkaline pH (dose-effect curve) ([1]; concentration of 10^−8 mole/liter) | inhibition of NBC or/and NDAE and N(D)CBE proteins (result in words) [2] |
| --- | --- | --- | --- | --- | --- |
| O=S(=O)(O)c1cc(N=C=S)ccc1C=Cc1ccc(N=C=S)cc1S(=O)(=O)O [DIDS, 4,4′-diisothiocyanostilbene-4,4′-disulfonate] | considerably longer recovery |  |  |  |  |
| N=C(N)N/N=C/c1c(Cl)cccc1Cl [Guanabenz] |  | 20.6 ± 5.2 | 9.9 ± 2.7 |  |  |
| COc1nc(C)nc(Cl)c1NC1=NCCN1 [Moxonidine, 4-chloro-5-[(4,5-dihydro-1H-imidazol-2-yl)-amino]-6-methoxy-2-methylpyrimidine] | considerably longer recovery | 58.8 ± 12.0 | 41.9 ± 24.4 | significantly inhibitory action | selective inhibitor |
